# Results from US11096389B2, “Alkanolamine sulfate water conditioners” (Indorama Ventures Oxides LLC, priority 2014, dated 2021).
# Where “and” joins values, the source holds several entries; their conditions need not be identical. Equal values may be shown once.
# What was measured:
# [1] = Compatibility with glyphosate herbicide solution; format: physicochemical; conditions: 950 g water with 1000 ppm calcium, 30 g MEA sulfate solution, 20 g ROUNDUP ULTRA MAX
# Experimental: A mixture of 950 grams water containing 1000 ppm calcium, 30 grams of the MEA sulfate solution from Example 1, and 20 grams of ROUNDUP ULTRA® MAX herbicide (The Scotts Company LLC of Marysville, Ohio) was prepared.
# [2] = system: amaranth; experiment: Field trial, water conditioning effect with glyphosate, visual injury; format: in vivo; conditions: for % Control 2 Weeks Post Treatment, Mean / % Control 4 Weeks Post Treatment, Mean: mean of 3 plots; for % Control 2 Weeks Post Treatment / % Control 4 Weeks Post Treatment: single plots
# Experimental: (§1) A field trial was conducted to compare the efficacy of the herbicide glyphosate (diluted to less than its label use rate with distilled water or water containing 1000 ppm (calcium+magnesium)), with or without water conditioning agents of the present disclosure. In this trial, the glyphosate-containing spray was applied to flax, amaranth, sunflower and corn. The glyphosate used in this field trial was Touchdown® HT herbicide and its spray application rate was kept constant at 9.6 fl oz/a. A non-ionic surfactant (Activator 90 surfactant) was also applied with the herbicide at a constant spray application rate of 0.5% v/v. Finally, the water conditioning agents of the present disclosure, when present, were applied at spray application rates of 0.75% v/v and 1.0% v/v. Flax, amaranth, sunflower and corn, which had been plotted at various locations throughout the field, were spray treated and visually assessed on a particular day after treatment for injury on a scale of 0 to 100%, with zero representing “no” injury and 100% representing “complete” injury or death. The water conditioning agents tested during this trial included: […]
# [3] = system: sunflower; experiment: as above; format: in vivo; conditions: for % Control 2 Weeks Post Treatment, Mean / % Control 4 Weeks Post Treatment, Mean: mean of 3 plots; for % Control 2 Weeks Post Treatment / % Control 4 Weeks Post Treatment: single plots
# Experimental: as §1
# [4] = system: corn; experiment: as above; format: in vivo; conditions: for % Control 2 Weeks Post Treatment, Mean / % Control 4 Weeks Post Treatment, Mean: mean of 3 plots; for % Control 2 Weeks Post Treatment / % Control 4 Weeks Post Treatment: single plots
# Experimental: as §1
# [5] = system: flax; experiment: as above; format: in vivo; conditions: for % Control 2 Weeks Post Treatment, Mean / % Control 4 Weeks Post Treatment, Mean: mean of 3 plots; for % Control 2 Weeks Post Treatment / % Control 4 Weeks Post Treatment: single plots
# Experimental: as §1
# [6] = TGA; mixture of water, dicamba-DGA and water conditioning agent at field-use concentrations
# Source text: A comparison of the increase in auxin herbicide volatility in various water conditioning agents was done by preparing mixtures of water, herbicide (dicamba diglycolamine (DGA) salt in this case), and water conditioning agent. Concentration of the solutions mimics actual agricultural field-use concentrations. In this test, done using thermogravimetric analysis (TGA), a comparison was made between a control (dicamba-DGA alone) to dicamba-DGA plus a water conditioning agent.
# [7] = glyphosate in hard water + non-ionic surfactant + sulfate at 0.75% v/v
# [8] = glyphosate in hard water + non-ionic surfactant + sulfate at 1.0% v/v
# [9] = glyphosate in distilled water + non-ionic surfactant
# [10] = glyphosate in hard water + non-ionic surfactant, no water conditioner
molecule,measurement,setting,value
monoethanolamine sulfate [Sulfate 1],physical and chemical compatibility with glyphosate-containing formulation,[1],"clear, homogenous solution"
same,"% Control 2 Weeks Post Treatment, Mean",[2]; [7],72.7%
same,"% Control 4 Weeks Post Treatment, Mean",[2]; [7],72.7%
same,% Control 2 Weeks Post Treatment,[2]; [7],75% and 68%
same,% Control 4 Weeks Post Treatment,[2]; [7],75% and 68%
same,"% Control 2 Weeks Post Treatment, Mean",[2]; [8],81.7%
same,"% Control 4 Weeks Post Treatment, Mean",[2]; [8],71.7%
same,% Control 2 Weeks Post Treatment,[2]; [8],80% and 85%
same,% Control 4 Weeks Post Treatment,[2]; [8],70% and 75%
same,"% Control 2 Weeks Post Treatment, Mean",[3]; [7],71%
same,"% Control 4 Weeks Post Treatment, Mean",[3]; [7],71%
same,% Control 2 Weeks Post Treatment,[3]; [7],70% and 75% and 68%
same,% Control 4 Weeks Post Treatment,[3]; [7],70% and 75% and 68%
same,"% Control 2 Weeks Post Treatment, Mean",[3]; [8],85%
same,"% Control 4 Weeks Post Treatment, Mean",[3]; [8],80%
same,% Control 2 Weeks Post Treatment,[3]; [8],85%
same,% Control 4 Weeks Post Treatment,[3]; [8],80%
same,"% Control 2 Weeks Post Treatment, Mean",[4]; [7],68.7%
same,"% Control 4 Weeks Post Treatment, Mean",[4]; [7],79.3%
same,% Control 2 Weeks Post Treatment,[4]; [7],68% and 70%
same,% Control 4 Weeks Post Treatment,[4]; [7],80% and 78%
same,"% Control 2 Weeks Post Treatment, Mean",[4]; [8],77.7%
same,"% Control 4 Weeks Post Treatment, Mean",[4]; [8],86%
same,% Control 2 Weeks Post Treatment,[4]; [8],80% and 75% and 78%
same,% Control 4 Weeks Post Treatment,[4]; [8],88% and 85%
same,"% Control 2 Weeks Post Treatment, Mean",[5]; [7],51.7%
same,"% Control 4 Weeks Post Treatment, Mean",[5]; [7],51.7%
same,% Control 2 Weeks Post Treatment,[5]; [7],45% and 50% and 60%
same,% Control 4 Weeks Post Treatment,[5]; [7],45% and 50% and 60%
same,"% Control 2 Weeks Post Treatment, Mean",[5]; [8],48.3%
same,"% Control 4 Weeks Post Treatment, Mean",[5]; [8],48.3%
same,% Control 2 Weeks Post Treatment,[5]; [8],55% and 45%
same,% Control 4 Weeks Post Treatment,[5]; [8],55% and 45%
"COc1c(Cl)ccc(Cl)c1C(=O)O [Dicamba-DGA, 3,6-dichloro-2-methoxybenzoic acid]",Relative Volatility,[6],0.01185
"O=C(O)CNCP(=O)(O)O [Glyphosate, N-(phosphonomethyl) glycine, reference compound]","% Control 2 Weeks Post Treatment, Mean",[2]; [9],53.3%
same,"% Control 4 Weeks Post Treatment, Mean",[2]; [9],56.7%
same,% Control 2 Weeks Post Treatment,[2]; [9],50% and 60%
same,% Control 4 Weeks Post Treatment,[2]; [9],55% and 60%
same,"% Control 2 Weeks Post Treatment, Mean",[2]; [10],33.3%
same,"% Control 4 Weeks Post Treatment, Mean",[2]; [10],33.3%
same,% Control 2 Weeks Post Treatment,[2]; [10],30% and 35%
same,% Control 4 Weeks Post Treatment,[2]; [10],30% and 35%
same,"% Control 2 Weeks Post Treatment, Mean",[3]; [9],53.3%
same,"% Control 4 Weeks Post Treatment, Mean",[3]; [9],56.7%
same,% Control 2 Weeks Post Treatment,[3]; [9],50% and 60%
same,% Control 4 Weeks Post Treatment,[3]; [9],55% and 60%
same,"% Control 2 Weeks Post Treatment, Mean",[3]; [10],33.3%
same,"% Control 4 Weeks Post Treatment, Mean",[3]; [10],33.3%
same,% Control 2 Weeks Post Treatment,[3]; [10],30% and 35%
same,% Control 4 Weeks Post Treatment,[3]; [10],30% and 35%
same,"% Control 2 Weeks Post Treatment, Mean",[4]; [9],53.3%
same,"% Control 4 Weeks Post Treatment, Mean",[4]; [9],56.7%
same,% Control 2 Weeks Post Treatment,[4]; [9],50% and 60%
same,% Control 4 Weeks Post Treatment,[4]; [9],55% and 60%
same,"% Control 2 Weeks Post Treatment, Mean",[4]; [10],33.3%
same,"% Control 4 Weeks Post Treatment, Mean",[4]; [10],33.3%
same,% Control 2 Weeks Post Treatment,[4]; [10],30% and 35%
same,% Control 4 Weeks Post Treatment,[4]; [10],30% and 35%
same,"% Control 2 Weeks Post Treatment, Mean",[5]; [9],53.3%
same,"% Control 4 Weeks Post Treatment, Mean",[5]; [9],56.7%
same,% Control 2 Weeks Post Treatment,[5]; [9],50% and 60%
same,% Control 4 Weeks Post Treatment,[5]; [9],55% and 60%
same,"% Control 2 Weeks Post Treatment, Mean",[5]; [10],33.3%
same,"% Control 4 Weeks Post Treatment, Mean",[5]; [10],33.3%
same,% Control 2 Weeks Post Treatment,[5]; [10],30% and 35%
same,% Control 4 Weeks Post Treatment,[5]; [10],30% and 35%
